From US7407963B2, “Cyclopropane CGRP antagonists, medicaments containing these compounds, and method for the production thereof” (Boehringer Ingelheim Pharma GmbH & Co. KG, priority 1999, dated 2008) come the findings set out here.

A word on the melting point: it is the temperature of the solid-liquid transition. Regarding `O=C(c1ccc(Cl)cc1)[C@H]1C[C@H]1C(=O)N1CCC(N2Cc3ccccc3NC2=O)CC1` (relative stereo) [Item No. 1, cis-3-{1-[2-(4-chlorobenzoyl)cyclopropanecarbonyl]-4-piperidinyl}-3,4-dihydro-2(1H)-quinazolinone], the melting point is 272 to 273 °C.

Molecule `CN(C)CCOc1ccc2c(c1)CN(C1CCN(C(=O)[C@@H]3C[C@H]3C(=O)c3cc(Br)c(N)c(Br)c3)CC1)C(=O)N2` (relative stereo) [Item No. 16, trans-3-{1-[2-(4-amino-3,5-dibromobenzoyl)cyclopropanecarbonyl]-4-piperidinyl}-3,4-dihydro-6-[2-(dimethylamino)ethoxy]-2(1H)-quinazolinone] gave a melting point of 235 °C.

As to `Nc1c(Br)cc(C(=O)[C@@H]2C[C@H]2C(=O)N2CCC(n3cc(-c4ccccc4C(F)(F)F)[nH]c3=O)CC2)cc1Br` (relative stereo) [Item No. 18, trans-1-{1-[2-(4-amino-3,5-dibromobenzoyl)cyclopropanecarbonyl]-4-piperidinyl}-1,3-dihydro-4-[2-(trifluoromethyl)phenyl]-2(2H)-imidazolone], the melting point is 248 °C.
